From paper PMC10526194 (2023) come the findings set out here.

Test [1] concerns 40-mer aptamer (DNA, aptamer) ACGTTGACGCTGGTGCCCGGTTGTGGTGCGAGTGTTGTGT
Briefly: CD thermal denaturation (250 nm free, 270 nm bound). As to conditions: 100 mM Na+, 5 mM K+, 2 mM Mg2+, 1 mM Ca2+; 20 mM Tris pH 7.1; 40 µM OTC, 5 µM aptamer; derived from two Tm (41 to 80 °C).

Test [2] deals with thiol-modified 40-mer aptamer (DNA, aptamer) ACGTTGACGCTGGTGCCCGGTTGTGGTGCGAGTGTTGTGT
Briefly: QCM with dissipation (frequency decrease). As to conditions: 100 mM Na+, 5 mM K+, 2 mM Mg2+, 1 mM Ca2+; pH 7.1 and 9.1, 25 °C; 20 and 40 µM OTC.

The test system of test [3] is 40-mer aptamer (DNA, aptamer) ACGTTGACGCTGGTGCCCGGTTGTGGTGCGAGTGTTGTGT
The test is described as follows: CD titration. Particulars: 100 mM Na+, 5 mM K+, 2 mM Mg2+, 1 mM Ca2+; 20 mM Tris pH 7.6, 25 °C; 5 µM aptamer, 2.5-40 µM OTC.

Test [4] has as its system 71-mer aptamer (DNA, aptamer) GGAATTCGCTAGCACGTTGACGCTGGTGCCCGGTTGTGGTGCGAGTGTTGTGTGGATCCGAGCTCCACGTG
The test is described as follows: CD titration. As to conditions: 100 mM Na+, 5 mM K+, 2 mM Mg2+, 1 mM Ca2+; 20 mM Tris pH 7.6, 25 °C; 5 µM aptamer, 2.5-40 µM OTC.

As for `CN(C)[C@@H]1C(=O)C(C(N)=O)=C(O)[C@@]2(O)C(=O)C3=C(O)c4c(O)cccc4[C@@](C)(O)[C@H]3[C@H](O)[C@@H]12`, in test [1], the “Tm shift (ΔTm)” value was found to be 39 °C. Moreover, the binding entry in test [2], in test [3] and in test [4] was “yes” in each case.
